The values that follow come from PMC10498496, “Design and Synthesis of Poly(2,2′-Bipyridyl) Ligands for Induction of Cell Death in Cancer Cells: Control of Anticancer Activity by Complexation/Decomplexation with Biorelevant Metal Cations” (Inorganic Chemistry, 2023).

Data set [1] deals with Jurkat cells. The data set is described as follows: MTT assay in the presence of the caspase inhibitor Z-VAD-fmk. The data set is classed as cell-based, human. The following applies: Z-VAD-fmk 15 μM 3 h, then compound 12.5 μM for 24 h. The source says: We, therefore, selected Jurkat cells to study the cell death mechanism in detail, in this work. Programmed cell death (PCD) is generally classified into several types such as apoptosis, necroptosis, paraptosis, autophagic cell death, and so on.[30]−[33] We hypothesized that 1 and 2 function as inducers of apoptosis, which is a type of PCD in cancer cells, based on the morphological change of Jurkat cells observed in Figure 1 and mechanism of chelation therapy proposed in the previous studies.[11]−[19] It is known that the caspases family are cysteine proteases that play important roles in apoptosis and necroptosis.[38] Therefore, the effect of Z-VAD-fmk, which is known as one of general caspase inhibitors, on the cell death induced by 1 and cisplatin was examined.
Figure 3 Effect of Z-VAD-fmk on the cell death in Jurkat cells induced by 1. Jurkat cells were incubated in RPMI in the presence of Z-VAD-fmk (15 μM) for 3 h and then treated with (a) 1 (1 μM) and (b) cisplatin (50 μM) for 24 h. Asterisks indicate significant difference with *(P ≤ 0.05).
To investigate the mechanism responsible for the BAPTA-AM-induced cell death in Jurkat cells, Jurkat cells were incubated with Z-VAD-fmk (15 μM) for 3 h, and then cells were treated with BAPTA-AM (12.5 μM) for 24 h followed by an MTT assay.
IMR-90 cells in DMEM medium with 10% FBS (1.5 × 10^5 cells/mL) were seeded in to 96 well plates and incubated for 24 h at 37 °C, MTT assays with poly(bpy) ligands and their metal complexes (0–100 μM), cisplatin (0–100 μM), and actinomycin D (0–10 μM) were performed following the same procedure described above. These experiments were carried out at least three times. • (b) MTT assay in the presence of a caspase inhibitor. […]
For orientation: Tetrazolium dyes change colour on reduction, which living cells bring about.

Another data set relates to A549 cells. The data set is described as follows: MTT assay, cytotoxicity against A549 cells. The following applies: Homo sapiens, A549, 37 °C, treated for 24 h. The data set is classed as cell-based, human. The procedure: (§1) Second, we conducted the quantitative evaluation of the cytotoxicity of 1, 2, and 3 against various cancer cell lines by an MTT (3-(4,5-dimethylthiazol-2-yl)-2,5-diphenyltetrazolium bromide) assay. Jurkat, MOLT-4 (these two cell lines are human T-lymphocyte leukemia cells), and U937 (human lymphoma) cells (1.5 × 10^4 cells/well) were incubated in RPMI 1640 medium containing 10% FBS (fetal bovine serum) containing 1, 2, and 3 (0–25 μM) at 37 °C for 24 h, and then treated with the MTT reagent. A549 (human alveolar adenocarcinoma) and IMR-90 (normal human fetal lung fibroblast as model of normal cells) cells (1.5 × 10^4 cells/well) were incubated in DMEM (low glucose) with 10% FBS containing 1, 2, and 3 (0–25 μM), HeLa S3 (human epithelial carcinoma cells) cells (1.5 × 10^4 cells/well) were incubated in MEM with 10% FBS containing these ligands (0–25 μM) for 24 h at 37 °C and then treated with the MTT reagent.
(§2) HeLa S3 cells and A549 cells in MEM and DMEM medium with 10% FBS (1.5 × 10^5 cells/mL per one well) were seeded in to 96 well plates and incubated for 24 h, MTT assay of poly(bpy) ligands (0–25 μM), cisplatin (0–100 μM), and actinomycin D (0–10 μM) was performed according to the same procedure described above.

A further data set deals with HeLa S3 cells. The data set is described as follows: MTT assay, cytotoxicity against HeLa S3 cells. Particulars: Homo sapiens. The format is cell-based, human. The procedure: Second, we conducted the quantitative evaluation of the cytotoxicity of 1, 2, and 3 against various cancer cell lines by an MTT (3-(4,5-dimethylthiazol-2-yl)-2,5-diphenyltetrazolium bromide) assay. Jurkat, MOLT-4 (these two cell lines are human T-lymphocyte leukemia cells), and U937 (human lymphoma) cells (1.5 × 10^4 cells/well) were incubated in RPMI 1640 medium containing 10% FBS (fetal bovine serum) containing 1, 2, and 3 (0–25 μM) at 37 °C for 24 h, and then treated with the MTT reagent. […]
as §2

For data set [2], the system named is MOLT-4 cells. Description: MTT assay, cytotoxicity against MOLT-4 cells. The format is cell-based, human. Particulars: Homo sapiens, read-out: EC50 against MOLT-4. The procedure:
as §1
(§3) • (a) Cytotoxic study. Jurkat cells, MOLT-4 cells, and U937 cells (1.5 × 10^5 cells/mL per one well) were incubated in 10% FBS RPMI 1640 medium containing 1 (0–25 μM), 2 (0–25 μM) , 3, cisplatin (0–100 μM), and actinomycin D (0–10 μM) under 5% CO2 at 37 °C for 24 h on 96 well plates (Watson), 0.5% MTT (3-(4,5-dimethyl-2-thiazolyl)-2,5-diphenyl-2H-tetrazolium bromide) reagent in PBS (10 μL) was then added to the cells. After incubation at 37 °C for 4 h, a formazan lysis solution (10% SDS in 0.01 N HCl) (100 μL) was added and the resulting solution was incubated overnight under the same conditions, followed by the measurement of absorbance at 570 nm with a microplate reader (BIO-RAD).

Data set [3] deals with Jurkat cells. Description: MTT assay, cytotoxicity against Jurkat cells. The data set is classed as cell-based, human. The following applies: Homo sapiens, Jurkat. The procedure: as §1, §3
In a further data set the test system is U937 cells. Description: MTT assay, cytotoxicity against U937 cells. The following applies: Homo sapiens, read-out: EC50 against U937. The format is cell-based, human. The procedure: as §1, §3
Data set [4] deals with Jurkat cells. The data set is described as follows: MTT assay of Jurkat cells, effect of metal ions and incubation time on cytotoxicity of ligands. The format is cell-based, human. The procedure: Next, we examined the effect of complexation of 1, 2, BAPTA, and BAPTA-AM with metal ions such as Cu(NO3)2, Zn(NO3)2, FeSO4, Co(NO3)2, and NiSO4 on their cytotoxicity against Jurkat cells. Mixture of ligands and metal ions were incubated for 1 h at 37 °C, and added to Jurkat cells for incubation for 12, 24, and 48 h at [ligand] = 0.78–25 μM and [M^2+] = 1.71–37.5 μM ([ligand]: [M^2+] = 1:1.5). After that, MTT assays were carried out, as shown in Figure S3 of the Supporting Information.
(§4) IMR-90 cells in DMEM medium with 10% FBS (1.5 × 10^5 cells/mL) were seeded in to 96 well plates and incubated for 24 h at 37 °C, MTT assays with poly(bpy) ligands and their metal complexes (0–100 μM), cisplatin (0–100 μM), and actinomycin D (0–10 μM) were performed following the same procedure described above. These experiments were carried out at least three times. • (b) MTT assay in the presence of a caspase inhibitor. Jurkat cells were pre-treated with Z-VAD-fmk (15 μM) for 3 h, a general caspases inhibitor, followed by the treatment with 1 (1 μM), BABTA-AM (12.5 μM) and cisplatin (50 μM), respectively, for 24 h, and then MTT assay was carried out as described above. • (c) For evaluation of the effect of metal ions on the cytotoxicity of 1, 2, BAPTA, and BAPTA-AM, these ligands were incubated with metal ions such as Cu(NO3)2, Zn(NO3)2, FeSO4, Co(NO3)2, and NiSO4 for 1 h, respectively, and added to Jurkat cells. The whole mixtures were incubated for 12, 24, and 48 h at [ligand] = 0.78–25 μM and at [M^2+] = 1.71–37.5 μM ([ligand]/[M^2+] = 1:1.5). The MTT assays were conducted as described above.

The subject of the next data set is IMR-90 cells. Description: MTT assay, cytotoxicity against IMR-90 cells (model of normal cells). The format is cell-based, human. The following applies: Homo sapiens, read-out: EC50 against IMR-90. The procedure: as §1, §4
The subject of data set [5] is MOLT-4 cells. Further details: method as in earlier work. The following applies: ref 52 (Morita et al., Oncotarget 2013); read-out: EC50, cytotoxicity against MOLT-4 cells; cited from earlier work.
The mark [6] stands for this setting: HeLa S3, MTT, 37 °C, treated for 24 h, read-out: EC50 against HeLa S3 (converted).
Setting [7] is: MOLT-4, MTT, 37 °C, treated for 24 h.
The mark [8] stands for this setting: MTT, 37 °C, treated for 24 h, read-out: EC50 against Jurkat (converted).
Where [9] appears, read: U-937, MTT, 37 °C, treated for 24 h.
The mark [10] stands for this setting: Homo sapiens, Jurkat, no metal, incubation 48 h (Figure 9, S4), read-out: EC50 against Jurkat cells, metal-free ligand.
The mark [11] stands for this setting: IMR-90, MTT, 37 °C, treated for 24 h.

Like-named read-outs stand apart in the source and are kept apart here. Numbered stars: 1 amine (or outer) side, 2 acyl side, 3 side chain; on linkers, the order of the positions; unused ones are H or OH. Bridge positions count the residues as written; N and C are the ends. Square brackets hold non-standard residues; d marks the D form. Peptide text beside a SMILES is read from it. I, II: the chains in the order shown. Actinocin(9to1) = Cc1c2oc3c(C)ccc(C(=O)[*:1])c3nc-2c(C(=O)[*:2])c(N)c1=O; NMeV = CN[C@H](C(=O)O)C(C)C; Sar = CNCC(=O)O

As a reminder, the EC50 is the midpoint of the concentration-response curve. Take `CC(=O)OCOC(=O)CN(CC(=O)OCOC(C)=O)c1ccccc1OCCOc1ccccc1N(CC(=O)OCOC(C)=O)CC(=O)OCOC(C)=O` [BAPTA-AM, reference compound]: the “cell viability of Jurkat cells after preincubation with Z-VAD-fmk” value in the data set with Jurkat cells [1] is “considerably restored”. In addition, the EC50 is greater than 50 µM in the data set on A549 cells; greater than 50 µM in the data set with HeLa S3 cells (setting [6]); 13.2 ± 0.2 µM in the data set on MOLT-4 cells [2] (setting [7]); 8.6 ± 0.3 µM in the data set with Jurkat cells [3] (setting [8]); 7.1 ± 0.4 µM with U937 cells (setting [9]); 8.6 µM with Jurkat cells [4] (Homo sapiens, Jurkat, no metal, incubation 24 h (Figure S4), read-out: EC50 against Jurkat cells, ligand alone). For the same compound, the EC50 with Jurkat cells [4] (setting [10]) is 7.9 µM; in the data set on IMR-90 cells (setting [11]) it was greater than 50 µM.
On to `O=[N+]([O-])[O-].O=[N+]([O-])[O-].[Co+2]` [Co^2+, Co(NO3)2], for which the EC50 in the data set on Jurkat cells [4] (no ligand, incubation 48 h (Figure 9a), read-out: EC50 of ligand-free metal ion against Jurkat cells) worked out at 13 µM.
On to `c1ccc(CN(CCN(Cc2ccccn2)Cc2ccccn2)Cc2ccccn2)nc1` [TPEN, N,N,N′,N′-tetra(2-pyrydylmethyl)ethylene diamine], for which the EC50 in the data set on MOLT-4 cells [5] is roughly 8 µM.
As to `Cc1c2oc3c(C)ccc(C(=O)N[C@@H]4C(=O)N[C@H](C(C)C)C(=O)N5CCC[C@H]5C(=O)N(C)CC(=O)N(C)[C@@H](C(C)C)C(=O)O[C@@H]4C)c3nc-2c(C(=O)N[C@@H]2C(=O)N[C@H](C(C)C)C(=O)N3CCC[C@H]3C(=O)N(C)CC(=O)N(C)[C@@H](C(C)C)C(=O)O[C@@H]2C)c(N)c1=O` [actinomycin D, reference compound] (I: T[dV]P[Sar][NMeV] / II: T[dV]P[Sar][NMeV]; ester I:1-I:C, II:1-II:C; linker I:N-II:N via Actinocin(9to1)), the EC50 in the data set on HeLa S3 cells (HeLa S3, 24 h, read-out: EC50 against HeLa S3) was greater than 10 µM; in the data set with MOLT-4 cells [2] (MOLT-4, 24 h) it was 0.003 µM; with Jurkat cells [3] (24 h, read-out: EC50 against Jurkat) it was 0.005 µM; in the data set with U937 cells (U-937, 24 h), 0.051 µM; in the data set on IMR-90 cells (IMR-90, 24 h), 53 ± 2.6 µM.
By melting point is commonly meant the temperature of the solid-liquid transition. Consider `c1ccc(-c2ccc(OCc3cccc(COc4ccc(-c5ccccn5)nc4)c3)cn2)nc1` [compound 2, 1,3-Bis(([2,2′-Bipyridin]-5-yloxy)methyl)benzene], for which the melting point was in the range of 135 to 136 °C. The same compound showed an EC50 in the data set on A549 cells of 9.5 ± 1.2 µM. The EC50 in the data set with HeLa S3 cells (setting [6]) is 15 ± 1.34 µM. For the same compound, in the data set on MOLT-4 cells [2] (setting [7]), the EC50 is 0.64 ± 0.55 µM. Moreover, the EC50 in the data set on Jurkat cells [3] (setting [8]) was 0.77 ± 0.56 µM. Besides, the EC50 in the data set on U937 cells (setting [9]) was 0.59 ± 0.33 µM. Also, the EC50 in the data set with Jurkat cells [4] (Homo sapiens, Jurkat, no metal, incubation 12 h (Figure 9), read-out: EC50 against Jurkat cells, metal-free ligand) is roughly 2 µM. The concentration for a half-maximal effect (EC50) in the data set on Jurkat cells [4] (setting [10]) is roughly 0.1 µM. Besides, in the data set with IMR-90 cells (setting [11]), the EC50 was greater than 100 µM.
`c1ccc(COc2ccc(-c3ccccn3)nc2)cc1` [compound 3, 5-(Benzyloxy)-2,2′-bipyridine] returned a melting point of 85 to 87 °C. In the data set with A549 cells, this compound registered an EC50 of 11 ± 0.55 µM. The EC50 in the data set on HeLa S3 cells (setting [6]) is 15 ± 0.37 µM. Besides, in the data set with MOLT-4 cells [2] (setting [7]), the EC50 worked out at 8.7 ± 0.89 µM. Besides, in the data set on Jurkat cells [3] (setting [8]), the half-maximal effective concentration (EC50) is 13 ± 0.34 µM. For the same compound, in the data set with U937 cells (setting [9]), the EC50 worked out at 5.6 ± 0.77 µM. Also, in the data set on IMR-90 cells (setting [11]), the EC50 is 75 ± 0.1 µM.
